Five molecules from patent US10239870B2, “Dopamine D3 receptor antagonists” (priority 2014, dated 2019) can be followed below.

SMILES strings stand for the structures.

The experiment has as its target hD2 recombinant receptor (human dopamine receptor type 2, long variant, CHO-Gα16-hD2L cells) (Homo sapiens (Human), UniProt P14416). Particulars: functional pKi; antagonism of dopamine EC80 calcium response (FLIPR).
As for `Cn1c(OCCCN2CC[C@]3(C[C@H]3c3ccc(C(F)(F)F)cc3)C2)nnc1C1CCOCC1` (single isomer, unassigned) [Example 304, (1S,3S or 1R,3R)-5-(3-{[4-methyl-5-(oxan-4-yl)-4H-1,2,4-triazol-3-yl]oxy}propyl)-1-[4-(trifluoromethyl)phenyl]-5-azaspiro[2.4]heptane], the “D2 fpKi” value is less than 5.
The value for `Cc1ncoc1-c1nnc(SCCCN2CC[C@]3(CC[C@H]3c3ccccc3)C2)n1C` (single isomer, unassigned) [Example 318, (1R,4S or 1S,4R or 1S,4S or 1R,4R)-6-(3-{[4-methyl-5-(4-methyl-1,3-oxazol-5-yl)-4H-1,2,4-triazol-3-yl]sulfanyl}propyl)-1-phenyl-6-azaspiro[3.4]octane] was less than 5; that for `Cc1ncoc1-c1nnc(SCCCN2CCC[C@@]3(C[C@H]3c3ccc(C(F)(F)F)cc3)C2)n1C` (single isomer, unassigned) [Example 314, (1S,3S or 1R,3R)-5-(3-{[4-methyl-5-(4-methyl-1,3-oxazol-5-yl)-4H-1,2,4-triazol-3-yl]sulfanyl}propyl)-1-[4-(trifluoromethyl)phenyl]-5-azaspiro[2.5]octane] was less than 5.
For `Cc1ncoc1-c1nnc(SCCCN2CCC[C@]3(C[C@H]3c3ccc(C(F)(F)F)cc3)C2)n1C` (single isomer, unassigned) [Example 312, (1S,3R or 1R,3S)-5-(3-{[4-methyl-5-(4-methyl-1,3-oxazol-5-yl)-4H-1,2,4-triazol-3-yl]sulfanyl}propyl)-1-[4-(trifluoromethyl)phenyl]-5-azaspiro[2.5]octane], the “D2 fpKi” value came to 8.26.
In the case of `Cn1c(OCCCN2CC[C@@]3(C[C@@H]3c3ccc(C(F)(F)F)cc3)C2)nnc1C1CCOCC1` (single isomer, unassigned) [Example 305, (1R,3R or 1S,3S)-5-(3-{[4-methyl-5-(oxan-4-yl)-4H-1,2,4-triazol-3-yl]oxy}-propyl)-1-[4-(trifluoromethyl)phenyl]-5-azaspiro[2.4]heptane], the “D2 fpKi” value is recorded as less than 5.
